Measured values as given in US20080242649A1, “New Combination 665” (priority 2007, published 2008).
Read-outs that look alike come from different tables or passages of the source.

Legend:
[1] = system: LPS-induced intra-alveolar neutrophilia; experiment: Intra-alveolar neutrophil migration after intratracheal LPS challenge in the CRL:CD rat; type: in vivo
Procedure: Evaluation of Compound Activity on Intra-Alveolar Neutrophil Migration after Intratracheal Challenge with Lipopolysacharride (LPS) in the CRL:CD Rat
LPS challenge in CRL:CD rats causes an influx of neutrophils into the lungs. Under recoverable gaseous anaesthesia (5% isoflorane in oxygen), rats were dosed via the intratracheal route with vehicle (0.05M phosphate, 0.1% Tween 80, 0.6% saline, pH 6), or compound 30 min before challenge with an intratracheal dose of 10 μg/kg LPS.
The rats (250-400 g) were euthanized 4 hr after LPS challenge with 1 mL pentobarbitone sodium. A tracheotomy was performed and a cannula inserted. The airway was then lavaged using 3 mL Isoton at room temperature. The Isoton (BeckmanCoulter, High Wycombe, UK) was left in the airway for 10 seconds before being removed. The bronchio-alveolar lavage (BAL) fluid containing inflammatory cells was placed into a 15 mL centrifuge tube and kept on ice. This process was repeated three times. An aliquot of BAL fluid was removed and the inflammatory cells were counted on Sysmex (Sysmex UK, Milton Keynes). Neutrophils were expressed in millions/animal (mean ±s.e.mean).

[2] = system: histamine-induced bronchoconstriction; experiment: Lung function in anaesthetized guinea-pigs, histamine challenge; type: in vivo, Dunkin-Hartley guinea pig
Procedure: (§1) Evaluation of Lung Function in Anaesthetized Guinea-Pigs
(§2) Male Dunkin-Hartley guinea pigs (300-600 g) were weighed and dosed with vehicle (0.05M phosphate, 0.1% Tween 80, 0.6% saline, pH 6) or compound via the intratracheal route under recoverable gaseous anaesthesia (5% halothane in oxygen). Animals were dosed with compound or vehicle two hours prior to the administration of histamine or methacholine.
(§3) Guinea pigs were anaesthetized with pentobarbitone (1 mL/kg of 60 mg/mL solution i.p.) approximately 30 minutes prior to the first bronchoconstrictor administration. The trachea was cannulated and the animal ventilated using a constant volume respiratory pump (Harvard Rodent Ventilator model 683) at a rate of 60 breath/min and a tidal volume of 5 ml/kg. A jugular vein was cannulated for the administration of histamine, methacholine or maintenance anaesthetic (0.1 mL of pentobarbitone solution, 60 mg/mL, as required).
(§4) The animals were transferred to a Flexivent System (SCIREQ, Montreal, Canada) in order to measure airway resistance. The animals were ventilated (quasi-sinusoidal ventilation pattern) at 60 breaths/min at a tidal volume of 5 mL/kg. A positive end expiratory pressure of 2-3 cmH2O was applied. Respiratory resistance was measured using the Flexivent “snapshot” facility (1 second duration, 1 Hz frequency). Once stable baseline resistance value had been obtained the animals were given histamine or methacholine in ascending doses (0.5, 1, 2, 3 and 5 μg/kg, i.v.) at approximately 4-minute intervals via the jugular catheter. After each administration of bronchoconstrictor the peak resistance value was recorded. Guinea pigs were euthanized with approximately 1.0 mL pentobarbitone sodium (Euthatal) intravenously after the completion of the lung function measurements. Percentage bronchoprotection produced by a compound was calculated at each dose of brochoconstrictor as follows:
(§5) Where % change Rveh is the mean of the maximum percentage change in airway resistance in the vehicle treated group. The results reported were measured after 5 μg/kg histamine or methacholine and were expressed as percentage bronchoprotection (mean ±s.e.mean).

guinea pig trachea = experiment: Bronchodilator onset in guinea pig isolated tracheal ring contracted with methacholine; conditions: roflumilast 1 μM alone
Procedure: Evaluation of Bronchodilator Activity in the Guinea Pig Isolated Tracheal Ring Preparation
Guinea pigs (300-500 g) were killed by cervical dislocation and the trachea was isolated. The trachea was cut into segments 2-3 cartilage rings in width and suspended in 10 ml organ baths in modified Krebs' solution (mM; NaCl, 90; NaHCO3, 45; KCl, 5; MgSO4.7H2O, 0.5; Na2HPO4.2H2O, 1; CaCl2, 2.25; glucose, 10; pH 7.4) gassed with 5% CO2, 95% […] at 37° C.). The tracheal rings were attached to an isometric force transducer for the measurement of isometric tension. The tissues were washed and a force of 1 g was applied to each tissue. The rings were contracted with methacholine (1 μM). Once the contraction had reached a plateau, vehicle (0.01% DMSO in distilled H2O), compound A (3 nM), roflumilast (1 μM) or a combination of compound A (3 nM) and roflumilast (1 μM) was added and the tissue left until the response had reached a plateau. Data were collected using the Chart 4 software (ADInstruments, Charlgrove, UK). The time to 90% of the maximum effect of the bronchodilator (onset time) was measured and expressed in min (mean ±s.e.mean).

[3] = system: LPS-induced TNFα production; experiment: Inhibition of LPS-induced TNFα production in human PBMCs; type: cell-based; conditions: for inhibition at 0.03 µM: Homo sapiens, PBMC
Procedure: Inhibition of Lipopolysacchamide (LPS)-Induced TNFα Production in Human Peripheral Blood Mononuclear Cells
The cells were then incubated with LPS (1 μg/mL) for 4 hours at 37° C. to induce TNFα production. At the end of the incubation period, the plates were centrifuged (300 g, 10 minutes) and 100 μL of the culture supernatant was analysed to quantify the TNFα released using a Fluorescence-linked immunosorbance assay (FLISA) assay kit (R&D Systems). Fluorescence levels were read on an FMAT plate reader. Inhibition curves were fitted using a 4-parameter logistic equation in a non-linear curve fitting routine and activity was expressed as pIC50 (mean ±s.e.mean).

[4] = system: methacholine-induced bronchoconstriction; experiment: Lung function in anaesthetized guinea-pigs, methacholine challenge; type: in vivo, Dunkin-Hartley guinea pig
Procedure: as §1, §2, §3, §4, §5

Question: How did the inhibition of neutrophilia ([1]; budesonide 0.1 μg/kg intratracheal 30 min prior to LPS) turn out when CCCC1O[C@@H]2C[C@H]3[C@@H]4CCC5=CC(=O)C=C[C@]5(C)[C@H]4[C@@H](O)C[C@]3(C)[C@]2(C(=O)CO)O1 (some centres unmarked) [Budesonide, reference compound] was run?
Answer: 51%

Question: What about the “neutrophils in BAL” value ([1]; budesonide 0.1 μg/kg intratracheal, vehicle/LPS 14±1.6) of the same molecule?
Answer: 7.1±0.77 million/animal

Question: CNC(=O)c1cc(Cl)c(OC(C)(C)C(=O)O)cc1OC[C@@H](O)CN1CCC2(CC1)Cc1cc(Cl)ccc1O2 [Compound W, 2-{2-Chloro-5-{[(2S)-3-(5-chloro-1′H,3H-spiro[1-benzofuran-2,4′-piperidin]-1′-yl)-2-hydroxypropyl]oxy}-4-[(methylamino)carbonyl]phenoxy}-2-methylpropanoic acid] was tested. Which inhibition of neutrophilia ([1]; Compound W 3 ng/kg intratracheal) did it give?
Answer: 56%

Question: What about the “neutrophils in BAL” value ([1]; Compound W 3 ng/kg, vehicle/LPS 11±1.8) of the same molecule?
Answer: 6.3±1.1 million/animal

Question: CC(=O)Nc1ccc(O)cc1OC[C@@](C)(O)CNC1CCN(Cc2ccc(Cl)cc2)CC1 [Compound X, N-{2-[((2S)-3-{[1-(4-chlorobenzyl)piperidin-4-yl]amino}-2-hydroxy-2-methylpropyl)oxy]-4-hydroxyphenyl}acetamide] was tested. Which inhibition of neutrophilia ([1]; Compound X 30 μg/kg intratracheal) did it give?
Answer: 30%

Question: What about the “neutrophils in BAL” value ([1]; Compound X 30 μg/kg, vehicle/LPS 12±1.7) of the same molecule?
Answer: 8.5±0.75 million/animal

Question: Which results are given for O=C(Nc1c(Cl)cncc1Cl)c1ccc(OC(F)F)c(OCC2CC2)c1 [Roflumilast, 3-(cyclopropylmethoxy)-N-(3,5-dichloro-4-pyridinyl)-4-(difluoromethoxy)benzamide, reference compound]?
Answer: inhibition of histamine-induced bronchoconstriction ([2]; roflumilast 1 mg/kg intratracheal 2 h before, histamine 5 μg/kg i.v.): 35%; increase in bronchoconstriction ([2]; roflumilast 1 mg/kg intratracheal, histamine 5 μg/kg, vehicle 1100±161%): 695±177%; onset time (time to 90% of the maximum effect) (guinea pig trachea): 26 ± 1.4 min; inhibition at 0.03 µM ([3]; roflumilast 30 nM alone, PBMCs, LPS 1 μg/mL, read-out: inhibition of LPS-induced TNFα production): 70 ± 4.1%; inhibition at 0.03 µM ([3]; roflumilast 30 nM in the presence of 30 nM compound A, read-out: maximum inhibition of TNFα production): 92 ± 0.4%; maximum inhibition of TNFα production ([3]; roflumilast 30 nM in the presence of 3 nM compound A): 82±2.3%

Question: Which results are given for C[N+]1(C)[C@@H]2C[C@@H](OC(=O)C(O)(c3cccs3)c3cccs3)C[C@H]1[C@@H]1O[C@@H]12 [tiotropium bromide, reference compound]?
Answer: increase in resistance ([4]; tiotropium bromide 0.03 pg/kg intratracheal, methacholine 5 μg/kg, vehicle 1898±211%): 1656±269%; inhibition of methacholine-induced bronchoconstriction ([4]; tiotropium bromide intratracheal 2 h before, methacholine 5 μg/kg i.v.): 13%
